Experimental data taken from patent publication US20240180872A1, “METHODS AND COMPOUNDS OF CANNABIDIOL, MELATONIN AND AKBA FOR TREATING PANCREATIC CANCER” (priority 2021, published 2024).

Key:
PANC-1 cell line = experiment: Cytotoxicity assay (MTT, 72 hours, daily administration) in PANC-1; details: Homo sapiens, PANC-1, read-out: % VIABILITY ± S.D.
Experimental: Human pancreatic ductal adenocarcinoma (PANC-1 and MIAPaCa-2) cell lines were purchased by Sigma Aldrich (Milan, Italy) and cultured in DMEM high glucose medium (EuroClone, Milan, Italy) supplemented with 10% of fetal bovine serum (FBS), 2 mM L-glutamine, 100 IU/mL penicillin, 100 mg streptomycin and 1 mM sodium pyruvate. Cell lines were maintained at 37° C. with 5% CO2 and 95% of humidity.
3×10^4 cells/mL were seeded in 96-well plates in a final volume of 100 L/well. After one day of incubation, compounds or vehicles, alone or in combination, were added and six replicates were used for each treatment and all experiments were repeated three times. In all the experiments, the treatment was daily added, after washing with fresh medium. After 72 hours cell viability was investigated by adding 0.8 mg/mL of 3-[4,5-dimethylthiazol-2-yl]-2,5 diphenyl tetrazolium bromide (MTT) (Sigma Aldrich) to the media. After 3 h the supernatant was removed, and the pellet of salt crystals was solubilized with 100 μL/well of DMSO. The absorbance of the sample against a background control was measured at 570 nm using an ELISA reader microliter plate (BioTek Instruments, Winooski, VT, USA).
Cytotoxicity in PDAC cell lines: The effect of CBD, MLT and AKBA in reducing cell viability was evaluated at 72 hours, post daily administration, in PDAC cell lines. Cells were treated with different doses of CBD, MLT and AKBA (up to 1 mg) and percentage of cell viability was evaluated by the MTT assay. […] The compounds were administered daily for 72 hours, as in previous experiments at the desired doses. […] MTT assay was used to analyse the cell cytotoxicity.

[1] = test system: pancreatic adenocarcinoma associated genes; experiment: TaqMan Array gene expression in PANC-1, normalized for GAPDH; details: 24 hs, CBD 3.8, MLT 200, AKBA 7.5 micrograms/ml
Experimental: Total RNA from untreated or CBD, MLT, AKBA alone and in combination treated cell lines was extracted using Rneasy Mini kit (Qiagen, Milan, Italy). One microgram of total RNA from each sample was subjected to reverse transcription in a total volume of 20 μL using the High-Capacity cDNA Archive Kit (Applied Biosystem, Foster City, […], USA) according to the instructions. cDNAs were analyzed by qRT-PCR performed using an IQ5 Multicolor Real time PCR Detection system. Quantitative real-time gene expression was performed with the TaqMan® Array Human Pancreatic Adenocarcinoma 96-well Plate, containing 92 assays to pancreatic adenocarcinoma associated genes and 4 assays to candidate endogenous control genes, was purchased (Thermo Fisher, Grand Island, NY, USA) and used to evaluate the treatments in modulating PDAC-related genes (Table 1). Measurement of different housekeeping genes (GAPDH; HPRT1; GUSB) on the samples was used to normalize mRNA content. The gene expression levels of treated cell lines were expressed as relative fold compared with untreated or vehicle-treated cells.
To elucidate the molecular events induced by CBD, MLT and AKBA alone and in combination, 92 genes involved in PDAC progression and aggressiveness were evaluated by Taqman Array. Both cell lines were treated with CBD, MLT and AKBA alone and in combination, and the molecular pathways of PDAC associated gene were evaluated.
Target mRNA levels were normalized for GAPDH expression.

Structure (SMILES): C=C(C)[C@@H]1CCC(C)=C[C@H]1c1c(O)cc(CCCCC)cc1O [CBD, 2-[(1R,6R)-3-methyl-6-prop-1-en-2-ylcyclohex-2-en-1-yl]-5-pentylbenzene-1,3-diol]
- viability at 1.9 µg/mL (PANC-1 cell line): 86.5 ± 7.1%
- viability at 3.8 µg/mL (PANC-1 cell line): 66.4 ± 5.5%
- viability at 7.6 µg/mL (PANC-1 cell line): 13.1 ± 1.1%
- viability at 15.2 µg/mL (PANC-1 cell line): 7.9 ± 0.3%
- AKT3 mRNA relative expression ([1]; VEI 0.00): 0.00
- ARHGEF7 mRNA relative expression ([1]; VEI 0.00): 0.00
- BCL2 mRNA relative expression ([1]; VEI 0.00): 0.00
- CCND2 mRNA relative expression ([1]; VEI 0.00): 0.00
- CDKN2B mRNA relative expression ([1]; VEI 0.00): 0.35
- CYP2E1 mRNA relative expression ([1]; VEI 0.00): 0.00
- EGF mRNA relative expression ([1]; VEI 0.00): 0.00
- IGF1 mRNA relative expression ([1]; VEI 0.00): 0.00
- IL6 mRNA relative expression ([1]; VEI 0.00): 0.00
- KDR mRNA relative expression ([1]; VEI 0.00): 0.00
- KIT mRNA relative expression ([1]; VEI 0.00): 0.00
- MAPK3 mRNA relative expression ([1]; VEI 0.00): 0.01
- MMP1 mRNA relative expression ([1]; VEI 0.00): 0.00
- MMP3 mRNA relative expression ([1]; VEI 0.00): 0.00
- TGFA mRNA relative expression ([1]; VEI 0.00): 0.71
- TGFB2 mRNA relative expression ([1]; VEI 0.00): 0.08
- JAK2 mRNA relative expression ([1]; VEI 0.01): 0.01
- JAK3 mRNA relative expression ([1]; VEI 0.01): 0.01
- MMP7 mRNA relative expression ([1]; VEI 0.01): 0.01
- MMP9 mRNA relative expression ([1]; VEI 0.01): 0.01
- PK3CA mRNA relative expression ([1]; VEI 0.01): 0.02
- RAC2 mRNA relative expression ([1]; VEI 0.01): 0.01
- RB1 mRNA relative expression ([1]; VEI 0.01): 0.05
- TGFB3 mRNA relative expression ([1]; VEI 0.01): 0.00
- TGFBR1 mRNA relative expression ([1]; VEI 0.02): 0.03
- BRCA2 mRNA relative expression ([1]; VEI 0.03): 0.13
- CDKN2D mRNA relative expression ([1]; VEI 0.03): 0.03
- MDM2 mRNA relative expression ([1]; VEI 0.03): 0.04
- RHOB mRNA relative expression ([1]; VEI 0.03): 0.03
- CDKN2C mRNA relative expression ([1]; VEI 0.04): 0.03
- PK3R1 mRNA relative expression ([1]; VEI 0.04): 0.03
- PTGS2 mRNA relative expression ([1]; VEI 0.04): 0.00
- STATSB mRNA relative expression ([1]; VEI 0.04): 0.03
- MAPK1 mRNA relative expression ([1]; VEI 0.05): 0.06
- SMAD2 mRNA relative expression ([1]; VEI 0.05): 0.06
- CCND1 mRNA relative expression ([1]; VEI 0.06): 0.09
- MAP2K2 mRNA relative expression ([1]; VEI 0.06): 0.07
- PK3CD mRNA relative expression ([1]; VEI 0.06): 0.07
- TGFBR2 mRNA relative expression ([1]; VEI 0.06): 0.01
- VEGFA mRNA relative expression ([1]; VEI 0.06): 0.03
- VEGFB mRNA relative expression ([1]; VEI 0.06): 0.07
- CCNA2 mRNA relative expression ([1]; VEI 0.07): 0.01
- CCNE2 mRNA relative expression ([1]; VEI 0.07): 0.10
- EZF3 mRNA relative expression ([1]; VEI 0.07): 0.07
- SMAD4 mRNA relative expression ([1]; VEI 0.07): 0.07
- SOS1 mRNA relative expression ([1]; VEI 0.07): 0.06
- TGFB1 mRNA relative expression ([1]; VEI 0.07): 0.07
- MAP2K1 mRNA relative expression ([1]; VEI 0.08): 0.00
- MMP2 mRNA relative expression ([1]; VEI 0.08): 0.06
- VEGFC mRNA relative expression ([1]; VEI 0.08): 0.03
- CCNE1 mRNA relative expression ([1]; VEI 0.09): 0.08
- CDK2 mRNA relative expression ([1]; VEI 0.09): 0.13
- KRAS mRNA relative expression ([1]; VEI 0.09): 0.07
- RAC1 mRNA relative expression ([1]; VEI 0.09): 0.09
- REL mRNA relative expression ([1]; VEI 0.09): 0.10
- STAT2 mRNA relative expression ([1]; VEI 0.09): 0.03
- CDKN1B mRNA relative expression ([1]; VEI 0.10): 0.09
- CDKN2A mRNA relative expression ([1]; VEI 0.10): 0.22
- RELA mRNA relative expression ([1]; VEI 0.10): 0.06
- AKT1 mRNA relative expression ([1]; VEI 0.11): 0.09
- PK3CB mRNA relative expression ([1]; VEI 0.11): 0.08
- FIGF mRNA relative expression ([1]; VEI 0.14): 0.09
- TP53 mRNA relative expression ([1]; VEI 0.14): 0.24
- EZF4 mRNA relative expression ([1]; VEI 0.16): 0.16
- NFKB2 mRNA relative expression ([1]; VEI 0.16): 0.12
- EZF1 mRNA relative expression ([1]; VEI 0.17): 0.13
- SMAD3 mRNA relative expression ([1]; VEI 0.17): 0.16
- STAT1 mRNA relative expression ([1]; VEI 0.18): 0.10
- BRAF mRNA relative expression ([1]; VEI 0.22): 0.18
- BIRC5 mRNA relative expression ([1]; VEI 0.23): 0.09
- JAK1 mRNA relative expression ([1]; VEI 0.23): 0.22
- CDK4 mRNA relative expression ([1]; VEI 0.24): 0.21
- EGFR mRNA relative expression ([1]; VEI 0.24): 0.17
- RAF1 mRNA relative expression ([1]; VEI 0.25): 0.01
- CCNB1 mRNA relative expression ([1]; VEI 0.27): 0.31
- ERBB2 mRNA relative expression ([1]; VEI 0.27): 0.01
- SRC mRNA relative expression ([1]; VEI 0.27): 0.03
- GRB2 mRNA relative expression ([1]; VEI 0.31): 0.11
- BCL2L1 mRNA relative expression ([1]; VEI 0.35): 0.21
- HSP90AA1 mRNA relative expression ([1]; VEI 0.35): 0.35
- NFKB1 mRNA relative expression ([1]; VEI 0.35): 0.04
- RHOA mRNA relative expression ([1]; VEI 0.37): 0.30
- ELK1 mRNA relative expression ([1]; VEI 0.41): 0.07
- RELB mRNA relative expression ([1]; VEI 0.42): 0.23
- CDC42 mRNA relative expression ([1]; VEI 0.45): 0.04
- CDKN1A mRNA relative expression ([1]; VEI 0.49): 0.03
- AKT2 mRNA relative expression ([1]; VEI 0.50): 0.45
- HBEGF mRNA relative expression ([1]; VEI 0.53): 0.11
- NOTCH1 mRNA relative expression ([1]; VEI 1.03): 0.02
- STAT6 mRNA relative expression ([1]; VEI 1.38): 0.87
- STAT3 mRNA relative expression ([1]; VEI 4.45): 0.05
